Holding throughout (type): functional, cell-based
One assay deals with HL-60. Kind of assay: Cytotoxicity against Homo sapiens (human) HL60 cells by MTT assay. On the technique in general: Tetrazolium assays rely on reduction of a dye to a coloured formazan, in cell work by metabolically active cells.
For the next assay, the system named is SGC-7901. Kind of assay: Cytotoxicity against Homo sapiens (human) SGC7901 cells by MTT assay.
For another assay, the system named is HT-29. Kind of assay: Cytotoxicity against Homo sapiens (human) HT-29 cells by MTT assay.

Molecules are shown by their SMILES. In brackets after ≈: the same amount, converted by molar mass.

Consider `CCCCCCCCCCCCCCCC(=O)OCC(CO[C@@H]1O[C@H](CO)[C@@H](O)[C@H](O)[C@H]1O)OC(=O)CCCCCCCCCCCCCCC` (some centres undefined), for which the IC50 worked out at 27.7 µg/mL (≈ 37.9 µM) in the assay with HL-60, 4.9 µg/mL (≈ 6.7 µM) in the assay on SGC-7901 and 0.21 µg/mL (≈ 0.287 µM) in the assay with HT-29.
Regarding `CCCCCCCCCCCCCCCC(=O)OCCCCCCOC(=O)CCCCCCCCCCCCCCC`, the IC50 was determined as 0.49 µg/mL (≈ 0.824 µM) in the assay on HL-60, 1.6 µg/mL (≈ 2.69 µM) with SGC-7901 and 34.2 µg/mL (≈ 57.5 µM) with HT-29.
The corresponding values for `O=c1[nH]cc(F)c(=O)[nH]1` [FLUOROURACIL] are 25.4 µg/mL (≈ 195 µM), 0.58 µg/mL (≈ 4.46 µM) and 10.3 µg/mL (≈ 78.9 µM).

A word on the IC50: it is the midpoint of a concentration-inhibition curve. Read a high IC50 as lower potency.

The values are drawn from ChEMBL document CHEMBL3045702, “Cytotoxic lipid esters from Peucedanum ledebourielloides” (Med Chem Res, 2010).
